These are literature values, as cited in patent publication US20230380414A1, “SYSTEMS, DEVICES AND METHODS FOR DELIVERING AEROSOLIZED FLUOROCARBONS” (BOUNDLESS SCIENCE, LLC, priority 2020, published 2023).

Where two headings read alike, the source gives them in different places.

The conditions of data set [1]: cited from earlier work.
For data set [2] the following is noted: Table 1; cited from earlier work.
For data set [3] the following is noted: cited from earlier work; for Spec. Ht Liq C: liquid.
For data set [4] the following is noted: cited from earlier work; for Den: Table 1; for Specific Gravity: partial list of fluorinated and perfluorinated liquids.
The conditions of data set [5]: cited from earlier work; for Enthalpy of Vap. H: Table 1; for enthalpies of vaporization: running text.
For data set [6] the following is noted: in water; cited from earlier work.
For data set [7] the following is noted: @ 20° C.; cited from earlier work.
For data set [8] the following is noted: Table 1; cited from earlier work. The source holds these as a separate data set.
Setting [9] is: partial list of fluorinated and perfluorinated liquids.
Setting [10] is: Other perfluorinated liquids and their boiling points.
[11] abbreviates: commercial hydrofluoroalkanes, unit not given.

On to `OCC(F)(F)OC(F)(F)C(F)(F)OC(F)(F)C(F)(F)OC(F)(F)C(F)(F)C(F)(F)C(F)(F)F` [1H,1H-Perfluoro-3,6,9-trioxatridecan-1-ol], for which, in data set [1] (setting [9]), the “Boiling point” value is 175-176 °C.

`OCC(F)(F)OC(F)(F)C(F)(F)OC(F)(F)C(F)(F)C(F)(F)C(F)(F)F` [1H,1H-Perfluoro-3,6-dioxadecan-1-ol]: the “Boiling point” value in data set [1] (setting [9]) is 150 °C.

Regarding `FC(F)C(F)(F)C(F)(F)C(F)(F)C(F)(F)C(F)F` [1H,6H-Perfluorohexane, Dodecafluorohexane], in data set [1] (setting [9]), the “Boiling point” value is 93 °C.

Regarding `FC(F)C(F)(F)C(F)(F)C(F)(F)C(F)(F)C(F)(F)C(F)(F)C(F)F` [1H,8H-Perfluorooctane, Hexadecafluorooctane], in data set [1] (setting [9]), the “Boiling point” value is 134 °C.

On to `OCC(F)(F)C(F)(F)C(F)(F)C(F)(F)F` [1H, 1H-Perfluoro-1-pentanol, 1H, 1H-Nonafluoro-1-pentanol], for which, in data set [1] (setting [9]), the “Boiling point” value is 110-111 °C.

As for `FC(F)C(F)(F)C(F)(F)C(F)(F)C(F)(F)C(F)(F)C(F)(F)F` [1H-Perfluoroheptane, Pentadecafluoroheptane], the “Boiling point” value in data set [1] (setting [9]) is 97 °C.

In the case of `FC(F)C(F)(F)C(F)(F)C(F)(F)C(F)(F)C(F)(F)F` [1H-Perfluorohexane, Tridecafluorohexane], in data set [1] (setting [9]), the “Boiling point” value is 70 °C.

For the compound `FC(F)C(F)(F)C(F)(F)C(F)(F)C(F)(F)C(F)(F)C(F)(F)C(F)(F)C(F)(F)F` [1H-Perfluorononane, Nonadecafluorononane], in data set [1] (setting [9]), the “Boiling point” value is 138 °C.

For the compound `FC(F)C(F)(F)C(F)(F)C(F)(F)C(F)(F)C(F)(F)C(F)(F)C(F)(F)F` [1H-Perfluorooctane, Heptadecafluorooctane], the “Boiling point” value in data set [1] (setting [9]) is 117 °C.

For the compound `FC(F)C(F)(F)C(F)(F)C(F)(F)C(F)(F)F` [1H-Perfluoropentane, Undecafluoropentane], in data set [1] (setting [9]), the “Boiling point” value is 42 °C.

With `FC(F)C(F)(F)C(F)(F)C(F)F` [1H.4H-Perfluorobutane, Octafluorobutane], in data set [1] (setting [9]), the “Boiling point” value was 45 °C.

On to `OCC(F)(F)F` [2,2,2-trifluoroethanol], for which, in data set [1] (setting [10]), the Boiling point was 78 °C.

As for `FC(F)(F)C(F)(F)C(F)(F)C(F)(F)C(F)(F)C(F)(F)F` [C6F14], the Boiling point in data set [1] (Table 1) was 69 °C. Further, the Viscosity in data set [2] is 0.979 cPs. Besides, in data set [3], the “Spec Ht gas C” value is reported as 0.78 KJ/Kg/C and the “Spec. Ht Liq C” value was 0.71 KJ/Kg/C. The Den in data set [4] is 1.69 g/mL. In data set [5], the “Enthalpy of Vap. H” value is 93 kJ/kg.

For `FC(C(F)(F)F)C(F)(F)F` [HFA227ea ™], the “Boiling point” value in data set [1] (setting [11]) is −17.

For the compound `FCC(F)(F)F` [HFA 134a ™], the “Boiling point” value in data set [1] (setting [11]) is reported as −26.

For the compound `OCC(F)(F)C(F)(C(F)(F)F)C(F)(F)C(F)(F)C(F)(F)C(F)(C(F)(F)F)C(F)(F)F` (stereo not drawn) [Perfluoro-3,7-dimethyloctan-1-ol, 3,7-Bis(trifluoromethyl)tridecafluorooctanol], the “Boiling point” value in data set [1] (20 mmHg) is 95° C./20. Moreover, in data set [6], the Solubility result is “Insoluble in”.

In the case of `FC(F)(F)C(F)(C(F)(F)F)C(F)(C(F)(F)F)C(F)(F)F` [Perfluoro-(2,3-Dimethylbutane), 1,1,1,2,3,4,4,4-Octafluoro-2,3-bis(trifluoromethyl)butane], the “Specific Gravity” value in data set [4] is recorded as 1.7729.

For `FC(F)(F)C(F)(F)C(F)(F)C(F)(F)F` [Perfluorobutane], the Boiling point in data set [1] (setting [10]) was −1.7 °C; in data set [1] (Table 1), −1.8 °C; in data set [1] (Table 2) it was −1.7 °C; in data set [1] (Table 4), −1.7 °C; in data set [1], −1.7 C; in data set [1] (listed as perfiiuorobutane), −1.7 °C. The Viscosity in data set [2] was 0.012 cPs. In addition, the “Spec Ht gas C” value in data set [3] is 0.69 KJ/Kg/C. Moreover, the “Spec. Ht Liq C” value in data set [3] is 0.53 KJ/Kg/C. The Den in data set [4] was 1.63 g/mL. Moreover, in data set [5], the “Enthalpy of Vap. H” value was 88 kJ/kg. Moreover, in data set [5], the enthalpies of vaporization was 88 kJ/kg.

Turning to `FC1(F)C(F)(F)C(F)(F)C2(F)C(F)(F)C(F)(F)C(F)(F)C(F)(F)C2(F)C1(F)F` (stereo not drawn) [Perfluorodecalin, Octadecafluorodecalin], the Viscosity in data set [2] was 5.100 cPs. Moreover, in data set [3], the “Spec. Ht Liq C” value is 1.05 KJ/Kg/C. The Den in data set [4] was 1.92 g/mL. In addition, in data set [5], the “Enthalpy of Vap. H” value is 85 kJ/kg. Further, the “Vapor Pressure” value in data set [7] is 6 torr @ 20 °C. Also, in data set [8], the “O2 Solubility” value is 49 ml/100 ml.

Consider `FC(F)(F)C(F)(F)C(F)(F)C(F)(F)C(F)(F)C(F)(F)F` [Perfluorohexane], for which the Boiling point in data set [1] (setting [10]), in data set [1] (Table 2) and in data set [1] (Table 4) was 56.0 °C throughout.

With `FC(F)(F)C(F)(F)C(F)(F)C(F)(F)C(F)(F)C(F)(F)C(F)(F)C(F)(F)C(F)(F)F` [Perfluorononane, Eicosafluorononane], in data set [4], the “Specific Gravity” value is listed as 1.799.

Turning to `FC(F)(F)C(F)(F)C(F)(F)C(F)(F)C(F)(F)C(F)(F)C(F)(F)C(F)(F)F` [Perfluorooctane, Octadecafluorooctane], the Boiling point in data set [1] (Table 1) is 377 °C; in data set [1] (Table 2) it was 103.0 °C; in data set [1] (Table 4), 103.0 °C; in data set [1] (setting [9]) it was 103-104 °C. Besides, in data set [2], the Viscosity is 1.800 cPs. Further, the Den in data set [4] is 1.77 g/mL. In data set [4], the “Specific Gravity” value is recorded as 1.73. Moreover, in data set [5], the “Enthalpy of Vap. H” value is 76 kJ/kg.

`FC(F)(F)C(F)(F)C(F)(F)C(F)(F)C(F)(F)C(F)(F)C(F)(F)C(F)(F)Br` [Perfluorooctylbromide]: the Boiling point in data set [1] (setting [10]), in data set [1] (Table 2) and in data set [1] (Table 4) was 142 °C throughout.

Regarding `FC1(F)C(F)(F)C(F)(F)C2(F)C(F)(C1(F)F)C(F)(F)C(F)(F)C1(F)C(F)(F)C(F)(F)C(F)(F)C(F)(F)C12F` (stereo not drawn) [Perfluoroperhydrophenanthrene], the Boiling point in data set [1] (setting [10]), in data set [1] (Table 2) and in data set [1] (Table 4) was 215 °C each time.

On to `COC(F)(F)C(F)(F)C(F)(F)C(F)(F)F` [methyl perfluorobutylether], for which the Boiling point in data set [1] (setting [10]) is 60 °C.

On to `COC(F)(F)C(F)(F)C(F)(F)F` [methyl perfluoropropyl ether], for which, in data set [1] (setting [10]), the Boiling point is 34 °C.

On to `FC(F)(F)C(F)(F)C(F)(F)C(F)(F)N(C(F)(F)C(F)(F)C(F)(F)C(F)(F)F)C(F)(F)C(F)(F)C(F)(F)C(F)(F)F` [perfluoro tributyl amine], for which the Boiling point in data set [1] (setting [10]), in data set [1] (Table 2) and in data set [1] (Table 4) was 178 °C in each case.

For the compound `FC(F)(F)C(F)(F)C(F)(F)C(F)(F)C(F)(F)C(F)(F)C(F)(F)F` [perfluoroheptane, Hexadecafluoroheptane], the Boiling point in data set [1] (setting [10]) is 56.0 °C; in data set [1] (Table 1), 82 °C; in data set [1] (Table 2) it was 56.0 °C; in data set [1] (Table 4) it was 56.0 °C; in data set [1] (setting [9]), 80-82 °C. Besides, the Viscosity in data set [2] is listed as 0.900 cPs. The “Spec Ht gas C” value in data set [3] is given as 0.82 KJ/Kg/C. The “Spec. Ht Liq C” value in data set [3] was 0.64 KJ/Kg/C. Also, in data set [4], the Den was 1.75 g/mL. Also, the “Specific Gravity” value in data set [4] is on record as 1.72. In addition, the “Enthalpy of Vap. H” value in data set [5] was 90 kJ/kg.

For `FC(F)(F)C(F)(F)C(F)(F)C(F)(F)C(F)(F)F` [perfluoropentane], the Boiling point in data set [1] (setting [10]) is 28.0 °C; in data set [1] (Table 1), 30 °C; in data set [1] (Table 2), 28.0 °C; in data set [1] (Table 4), 28.0 °C; in data set [1] (running text), 30 C. Also, the Viscosity in data set [2] was 0.460 cPs. The “Specific Heat” value in data set [3] (chilled aerosolized liquid) is 1.05 KJ/Kg*C. The “Spec Ht gas C” value in data set [3] is reported as 1.02 KJ/Kg/C. In data set [3], the “Spec. Ht Liq C” value is 1.05 KJ/Kg/C. Moreover, the Den in data set [4] was 1.59 g/mL. Further, the “Enthalpy of Vap. H” value in data set [5] was 94 kJ/kg. Besides, in data set [5], the enthalpies of vaporization was 94 kJ/kg. Besides, the “O2 Solubility” value in data set [8] is on record as 54 ml/100 ml.

With `FC(F)(F)C(F)(F)C(F)(F)F` [perfluoropropane], the Boiling point in data set [1] (setting [10]), in data set [1] (Table 2) and in data set [1] (Table 4) was −36.7 °C each time.

On to `FC(F)(F)C(F)(F)C(F)(F)C(F)(F)C(F)(F)N(C(F)(F)C(F)(F)C(F)(F)C(F)(F)C(F)(F)F)C(F)(F)C(F)(F)C(F)(F)C(F)(F)C(F)(F)F` [perfluorotripentyl amine], for which the Boiling point in data set [1] (setting [10]), in data set [1] (Table 2) and in data set [1] (Table 4) was 215 °C each time.

On to “Perfluoro(triethylene glycol dimethyl ether) [Perfluorotetraglyme]”, for which, in data set [1] (setting [9]), the “Boiling point” value was 138 °C.

With “Perfluoro(triethylene glycol dimethyl ether) [Perfluorotriglyme]”, the “Boiling point” value in data set [1] (setting [9]) is 106 °C.
